Our source for the Activity and IC50 values is ChEMBL document CHEMBL4376892, “Identification of Parthenolide Dimers as Activators of Pyruvate Kinase M2 in Xenografts of Glioblastoma Multiforme in Vivo” (J Med Chem, 2020).

The source made the active and inactive calls. The rule behind the calls is not given here.

Test [1] concerns U-118-MG. Kind of test: Induction of apoptosis in human U118MG cells transfected with lentivirus expressing shPKM2 assessed as necrotic cells after 48 hrs by Annexin-V-FITC/PI-staining based flow cytometric analysis (reference value: 0.105%). Type of test: functional. Background: Flow cytometry measures light scatter and fluorescence of single cells or particles in a stream.
Test [2] deals with U-118-MG. Kind of test: Antiproliferative activity against human U118MG cells transfected with lentivirus expressing shNC assessed as reduction in cell viability after 24 hrs by MTT assay. It is filed as functional, cell-based. (In general: Tetrazolium dyes change colour on reduction, which living cells bring about.)
In test [3] the test system is U-118-MG. Kind of test: Antimigratory activity against human U118MG cells transfected with lentivirus expressing shPKM2 at 2 uM incubated for 48 hrs by crystal violet staining based transwell assay. Type of test: functional, cell-based.
In the next test the test system is SUM-159-PT. Kind of test: Antiproliferative activity against human SUM159 cells assessed as reduction in cell viability after 72 hrs by MTT assay. It is filed as functional, cell-based.
A further test has as its system A549. Kind of test: Antiproliferative activity against human A549 cells assessed as reduction in cell viability after 72 hrs by MTT assay. The note with it: A549, 72 h. It is filed as functional, cell-based.
In test [4] the test system is U-87 MG. The experiment in a line: Induction of apoptosis in human U87 cells transfected with lentivirus expressing shPKM2 assessed as necrotic cells after 48 hrs by Annexin-V-FITC/PI-staining based flow cytometric analysis (reference value: 0.580%). It is filed as functional, U-87MG ATCC.
In another test the test system is SF-126. The experiment in a line: Antiproliferative activity against human SF126 cells assessed as reduction in cell viability after 72 hrs by MTT assay. It is filed as functional, cell-based. Conditions: SF-126, 72 h.
Test [5] addresses T1, Pyruvate kinase PKM (Homo sapiens, UniProt P14618). The experiment in a line: Activation of PKM2 in human U118MG cells assessed as inhibition of STAT3 protein expression at 1 to 2 uM after 24 hrs by Western blot analysis. It is filed as cell-based. (Immunoblotting shows a protein as a band on a membrane.)
Test [6] has as its target T1, Pyruvate kinase PKM. The experiment in a line: Activation of PKM2 in human U118MG cells assessed as increase in E-cadherin expression at 1 to 2 uM after 24 hrs by Western blot analysis. It is filed as cell-based.
Another test has as its system C6. Kind of test: Antiproliferative activity against rat C6 cells assessed as reduction in cell viability after 72 hrs by MTT assay. It is filed as functional, cell-based. Conditions: C6, 72 h.
The target of test [7] is T1, Pyruvate kinase PKM. Kind of test: Activation of recombinant human N-terminal 6His-tagged PKM2 expressed in Escherichia coli BL21 cells at 0.2 to 0.5 uM after 50 mins by fluorescence based analysis.
For test [8], the system named is U-118-MG. The experiment in a line: Induction of apoptosis in human U118MG cells transfected with lentivirus expressing shPKM2 assessed as early apoptotic cells after 48 hrs by Annexin-V-FITC/PI-staining based flow cytometric analysis (reference value: 2%). It is filed as functional.
Test [9] has as its system U-118-MG. The experiment in a line: Induction of apoptosis in human U118MG cells transfected with lentivirus expressing shNC assessed as viable cells after 48 hrs by Annexin-V-FITC/PI-staining based flow cytometric analysis (reference value: 96.7%). It is filed as functional.
A further test has as its system U-87MG ATCC. The experiment in a line: Induction of PDK4 protein expression in human U87 cells at 5 uM after 48 hrs by Western blot analysis. Type of test: functional, cell-based.
Another test deals with NIH3T3. The experiment in a line: Cytotoxicity against mouse 3T3 cells assessed as reduction in cell viability after 72 hrs by MTT assay. Type of test: cell-based. The note with it: NIH3T3, 72 h.
In another test the test system is U-251. Kind of test: Antiproliferative activity against human U251 cells assessed as reduction in cell viability after 72 hrs by MTT assay. Type of test: functional, cell-based. The note with it: U-251, 72 h.
Test [10] deals with U-87 MG. The experiment in a line: Antiinvasive activity against human U87 cells transfected with lentivirus expressing shPKM2 at 2 uM incubated for 48 hrs by crystal violet staining based transwell assay. It is filed as functional, cell-based. The note with it: U-87MG ATCC.
The subject of test [11] is U-87 MG. Kind of test: Induction of apoptosis in human U87 cells transfected with lentivirus expressing shPKM2 assessed as viable cells after 48 hrs by Annexin-V-FITC/PI-staining based flow cytometric analysis (reference value: 97.3%). It is filed as functional, U-87MG ATCC.
In test [12] the test system is U-118-MG. Kind of test: Induction of apoptosis in human U118MG cells transfected with lentivirus expressing shPKM2 assessed as late apoptotic cells after 48 hrs by Annexin-V-FITC/PI-staining based flow cytometric analysis (reference value: 0.221%). Type of test: functional.
In test [13] the test system is U-87 MG. Kind of test: Induction of apoptosis in human U87 cells assessed as early apoptotic cells after 48 hrs by Annexin-V-FITC/PI-staining based flow cytometric analysis (reference value: 4.91%). Type of test: functional, U-87MG ATCC.
Test [14] concerns the target T1, Pyruvate kinase PKM. The experiment in a line: Activation of PKM2 in human U118MG cells assessed as increase in bax protein expression at 1 to 2 uM after 48 hrs by Western blot analysis. Type of test: cell-based.
Test [15] addresses T1, Pyruvate kinase PKM. The experiment in a line: Activation of PKM2 in human U87 cells assessed as reduction in bcl2 expression at 1 to 2 uM after 48 hrs by Western blot analysis. Type of test: cell-based. The note with it: U-87MG ATCC.
Test [16] deals with T1, Pyruvate kinase PKM. The experiment in a line: Activation of PKM2 in human U118MG cells assessed as reduction in bcl-xl expression at 1 to 2 uM after 48 hrs by Western blot analysis. Type of test: cell-based.
The test system of the next test is HepG2. The experiment in a line: Antiproliferative activity against human HepG2 cells assessed as reduction in cell viability after 72 hrs by MTT assay. Type of test: functional, cell-based. The note with it: HepG2, 72 h.

T1 sequence (P14618 2-531 limits assumed): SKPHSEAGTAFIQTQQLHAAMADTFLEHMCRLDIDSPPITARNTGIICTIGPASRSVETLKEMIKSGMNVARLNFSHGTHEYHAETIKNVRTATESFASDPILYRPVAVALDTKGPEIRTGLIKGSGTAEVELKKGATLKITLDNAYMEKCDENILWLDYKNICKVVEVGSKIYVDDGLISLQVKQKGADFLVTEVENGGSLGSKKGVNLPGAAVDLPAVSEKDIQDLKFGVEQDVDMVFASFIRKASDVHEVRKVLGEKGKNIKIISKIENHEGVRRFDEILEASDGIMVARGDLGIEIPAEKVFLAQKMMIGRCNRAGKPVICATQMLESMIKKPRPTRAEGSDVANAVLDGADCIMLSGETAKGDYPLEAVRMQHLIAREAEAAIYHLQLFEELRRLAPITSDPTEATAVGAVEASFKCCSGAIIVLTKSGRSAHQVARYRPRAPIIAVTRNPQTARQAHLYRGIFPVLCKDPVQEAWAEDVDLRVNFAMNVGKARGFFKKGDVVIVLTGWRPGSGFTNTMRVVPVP

With `C=C1C(=O)O[C@H]2[C@H]1CC/C(C(=O)OCCOCCOC(=O)/C1=C/CC[C@@]3(C)O[C@H]3[C@H]3OC(=O)C(=C)[C@@H]3CC1)=C\CC[C@@]1(C)O[C@@H]21`, the Activity in the test with U-118-MG [1] came out at 0.09%; in the test on U-87 MG [4], 0.539%; with U-118-MG [8], 5.78%; in the test on U-118-MG [9], 34.7%; in the test with U-87 MG [11], 93%; in the test on U-118-MG [12] it was 1.32%. Further, the Activity in the test on U-87 MG [13] is 24.4%. Also, the IC50 worked out at 1.04 µM with U-118-MG [2]; 2.82 µM in the test on SUM-159-PT; 11.9 µM in the test with A549; 7.49 µM in the test on SF-126; 1.66 µM in the test with C6; 7.93 µM in the test with NIH3T3. Further, the 50% inhibitory concentration (IC50) in the test with U-251 was determined as 7.14 µM; with HepG2, 10.2 µM. In addition, the outcome with U-118-MG [3] and with U-87 MG [10] was inactive. Also, the outcome on Pyruvate kinase PKM [5], at Pyruvate kinase PKM [6], on Pyruvate kinase PKM [7], with U-87MG ATCC, at Pyruvate kinase PKM [14] and on Pyruvate kinase PKM [15] was Active. Also, the outcome on Pyruvate kinase PKM [16] was Active.

As a reminder, the IC50 is the point on the concentration scale where inhibition reaches its midpoint.
